Data taken from paper PMC4669708 (Cell Death & Disease, 2015).

What was measured:
Test in all cases: c-ponatinib pulldown LC-MS/MS
Format in all cases: binding
[1] = biological target: BLK (Homo sapiens, UniProt P51451)
Procedure: (§1) Drug-affinity matrices were prepared as described previously.[51] In brief, 25 nmol of c-ponatinib were immobilized on 50 μl NHS-activated Sepharose 4 Fast Flow beads (GE Healthcare Bio-Sciences AB, Uppsala, Sweden). 10 mg whole cell lysate was used as protein input per replicate. Affinity chromatography and elution were performed in duplicate. After elution, the enriched proteins were reduced with dithiothreitol (DTT) and cysteine residues were alkylated by incubation with iodoacetamide. The samples were digested with modified porcine trypsin (Promega). Five percent of the digested eluates were purified and concentrated by C18 reversed-phase material. Subsequently, samples were analyzed in duplicates by gel-free one-dimensional LCMS.
(§2) Precursor and MS/MS peaks were extracted from the RAW files and saved in the MGF format using msconvert tool (ProteoWizard Library v2.1.2708, www.proteowizard.sourceforge.net) for subsequent protein identification. An initial database search was performed with broader mass tolerance and conservative score threshold to re-calibrate the mass lists for optimal final protein identification. For the initial protein database search, Mascot (www.matrixscience.com, v2.3.02) was used. Error tolerances on the precursor and fragment ions were ±10 p.p.m. and ±0.6 Da, respectively, and the database search limited to fully-tryptic peptides with maximum one missed cleavage, carbamidomethyl cysteine and methionine oxidation set as fixed and variable modifications, respectively. The Mascot peptide ion score threshold was set to 30, and at least three peptide identifications per protein were required. Searches were performed against the human UniProtKB/SwissProt database (www.uniprot.org release 2013.01) including all protein isoforms. The initial peptide identifications were used to deduce independent linear transformations for precursor and fragment masses that would minimize the mean square deviation of measured masses from theoretical. Re-calibrated mass list files were searched against the same human protein database by a combination of Mascot and Phenyx (GeneBio SA, Geneva, Switzerland; version 2.5.14) search engines using narrower mass tolerances (±4 p.p.m. and ±0.3 Da). One missed tryptic cleavage site was allowed. Carbamidomethyl cysteine was set as a fixed modification and oxidized methionine was set as a variable modification. To validate the proteins, Mascot and Phenyx output files were processed by internally developed parsers. Proteins with ≥2 unique peptides above a score T1, or with a single peptide above a score T2 were selected as unambiguous identifications. Additional peptides for these validated proteins with score >T3 were also accepted. For Mascot searches, the following thresholds were used: T1=14, T2=40 and T3=10; Phenyx thresholds were set to 4.2, 4.75 and 3.5, respectively (P-value<10^−3). The validated proteins retrieved by the two algorithms were merged, any spectral conflicts discarded and grouped according to shared peptides. A false discovery rate of <1% for protein identifications and <0.1% for peptides (including the ones exported with lower scores) was determined by applying the same procedure against a database of reversed protein sequences. […] In addition to Mascot protein scores that were proposed as an estimate of protein abundance by the original algorithm, the modified version also included Phenyx protein scores and spectral counts. The algorithm first estimated three measure-specific P-values for each putative interaction, and, in contrast to,[69] P-value calculation utilized the quantiles of the measurements rather than the original data. The Fisher's method was used to combine the three resulting P-values into a single P-value for drug–protein interaction specificity. We have also correlated interaction P-values with the magnitude of competition effect represented by the fold reduction of spectral counts on free compound competition. […]

[2] = biological target: IRAK1 (Homo sapiens, UniProt P51617)
Procedure: as §1, §2

[3] = biological target: LCK (Homo sapiens, UniProt P06239)
Procedure: as §1, §2

[4] = biological target: MAP4K4 (Homo sapiens, UniProt O95819)
Procedure: as §1, §2

[5] = biological target: T1, MAPK12 (Homo sapiens, UniProt P53778)
T1 sequence (P53778 1-367): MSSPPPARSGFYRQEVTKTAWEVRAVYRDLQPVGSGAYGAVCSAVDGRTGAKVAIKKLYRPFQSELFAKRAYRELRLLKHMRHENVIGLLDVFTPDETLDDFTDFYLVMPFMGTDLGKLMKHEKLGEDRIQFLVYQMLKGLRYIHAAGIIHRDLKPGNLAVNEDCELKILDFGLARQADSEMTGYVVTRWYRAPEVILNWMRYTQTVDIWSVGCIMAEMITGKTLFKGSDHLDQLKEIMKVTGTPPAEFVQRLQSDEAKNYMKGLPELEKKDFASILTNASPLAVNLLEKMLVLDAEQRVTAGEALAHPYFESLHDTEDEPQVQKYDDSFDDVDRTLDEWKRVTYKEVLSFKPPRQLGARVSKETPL
Procedure: as §1, §2

[6] = biological target: MAPKAPK2 (Homo sapiens, UniProt P49137)
Procedure: as §1, §2

[7] = biological target: TESK2 (Homo sapiens, UniProt Q96S53)
Procedure: as §1, §2

[8] = biological target: TNIK (Homo sapiens, UniProt Q9UKE5)
Procedure: as §1, §2

[9] = biological target: UNC119B (Homo sapiens, UniProt A6NIH7)
Procedure: as §1, §2

[10] = biological target: T2, YWHAQ (Homo sapiens, UniProt P27348)
T2 sequence (P27348 1-245): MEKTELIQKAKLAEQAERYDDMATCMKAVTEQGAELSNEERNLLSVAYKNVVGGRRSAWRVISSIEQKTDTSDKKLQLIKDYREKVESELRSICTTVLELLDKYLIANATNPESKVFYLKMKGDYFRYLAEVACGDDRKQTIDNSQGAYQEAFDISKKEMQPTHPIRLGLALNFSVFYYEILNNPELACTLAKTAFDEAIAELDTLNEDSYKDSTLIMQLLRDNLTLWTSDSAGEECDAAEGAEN
Procedure: as §1, §2

IRAK1, sequence (P51617 whole entry): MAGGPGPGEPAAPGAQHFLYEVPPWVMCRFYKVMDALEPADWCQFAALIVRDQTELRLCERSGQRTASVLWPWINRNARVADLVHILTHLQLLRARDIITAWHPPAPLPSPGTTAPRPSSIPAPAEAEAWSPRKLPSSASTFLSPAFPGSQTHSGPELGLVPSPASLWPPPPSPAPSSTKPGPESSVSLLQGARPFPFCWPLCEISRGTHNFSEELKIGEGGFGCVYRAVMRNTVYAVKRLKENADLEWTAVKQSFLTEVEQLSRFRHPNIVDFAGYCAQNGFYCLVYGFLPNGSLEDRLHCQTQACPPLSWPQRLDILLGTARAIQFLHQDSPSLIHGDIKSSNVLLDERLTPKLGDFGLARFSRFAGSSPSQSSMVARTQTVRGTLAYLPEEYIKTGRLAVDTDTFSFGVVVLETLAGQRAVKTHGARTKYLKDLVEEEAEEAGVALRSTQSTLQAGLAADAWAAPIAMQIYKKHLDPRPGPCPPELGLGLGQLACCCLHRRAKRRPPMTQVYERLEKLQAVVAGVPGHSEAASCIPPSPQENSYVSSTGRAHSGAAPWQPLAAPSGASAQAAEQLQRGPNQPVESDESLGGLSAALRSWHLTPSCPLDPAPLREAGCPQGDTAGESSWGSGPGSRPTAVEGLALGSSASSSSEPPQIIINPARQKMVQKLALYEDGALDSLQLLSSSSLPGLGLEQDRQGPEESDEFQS
MAP4K4, sequence (O95819 whole entry): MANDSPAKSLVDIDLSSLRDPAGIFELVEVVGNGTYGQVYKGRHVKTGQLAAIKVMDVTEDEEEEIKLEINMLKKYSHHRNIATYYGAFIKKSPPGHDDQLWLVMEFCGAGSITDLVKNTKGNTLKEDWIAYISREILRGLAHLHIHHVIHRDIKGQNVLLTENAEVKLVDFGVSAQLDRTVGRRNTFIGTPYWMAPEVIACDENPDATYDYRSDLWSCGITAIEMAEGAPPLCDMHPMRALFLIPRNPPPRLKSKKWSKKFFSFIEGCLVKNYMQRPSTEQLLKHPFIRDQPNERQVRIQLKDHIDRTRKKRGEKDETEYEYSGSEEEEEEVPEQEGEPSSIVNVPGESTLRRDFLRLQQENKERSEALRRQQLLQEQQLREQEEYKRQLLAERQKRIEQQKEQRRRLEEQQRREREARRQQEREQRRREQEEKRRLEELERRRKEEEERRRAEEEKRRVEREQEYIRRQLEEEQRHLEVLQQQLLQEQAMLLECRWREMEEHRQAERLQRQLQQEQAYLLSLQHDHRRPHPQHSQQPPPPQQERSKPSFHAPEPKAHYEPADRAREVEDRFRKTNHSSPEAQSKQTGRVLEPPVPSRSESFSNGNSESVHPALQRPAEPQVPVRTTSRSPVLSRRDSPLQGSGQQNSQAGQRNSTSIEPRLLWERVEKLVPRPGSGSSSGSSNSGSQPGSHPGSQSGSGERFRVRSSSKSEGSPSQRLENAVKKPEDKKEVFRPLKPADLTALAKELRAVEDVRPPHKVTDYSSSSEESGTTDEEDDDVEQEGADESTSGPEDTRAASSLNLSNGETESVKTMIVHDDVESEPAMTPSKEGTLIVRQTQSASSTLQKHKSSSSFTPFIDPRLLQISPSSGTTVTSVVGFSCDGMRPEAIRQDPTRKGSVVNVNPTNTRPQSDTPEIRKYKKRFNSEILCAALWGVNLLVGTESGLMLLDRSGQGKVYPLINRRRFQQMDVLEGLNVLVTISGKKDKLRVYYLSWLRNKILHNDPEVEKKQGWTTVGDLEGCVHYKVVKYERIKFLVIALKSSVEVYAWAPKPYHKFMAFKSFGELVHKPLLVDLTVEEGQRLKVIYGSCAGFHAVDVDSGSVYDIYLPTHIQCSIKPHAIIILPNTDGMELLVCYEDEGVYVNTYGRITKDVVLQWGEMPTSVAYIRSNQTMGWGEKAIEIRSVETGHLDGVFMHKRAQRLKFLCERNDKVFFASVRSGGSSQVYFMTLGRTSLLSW
MAPKAPK2, sequence (P49137 whole entry): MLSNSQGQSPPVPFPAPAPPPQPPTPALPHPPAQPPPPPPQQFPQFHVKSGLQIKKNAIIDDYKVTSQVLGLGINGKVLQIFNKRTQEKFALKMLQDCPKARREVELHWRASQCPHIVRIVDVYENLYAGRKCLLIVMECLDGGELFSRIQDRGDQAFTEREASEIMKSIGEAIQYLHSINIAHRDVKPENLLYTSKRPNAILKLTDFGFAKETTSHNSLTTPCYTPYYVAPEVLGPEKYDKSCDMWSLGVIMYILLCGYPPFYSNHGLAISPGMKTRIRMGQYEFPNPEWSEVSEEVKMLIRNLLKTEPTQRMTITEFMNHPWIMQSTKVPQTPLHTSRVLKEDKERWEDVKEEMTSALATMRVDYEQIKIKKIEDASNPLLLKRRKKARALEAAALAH
UNC119B, sequence (A6NIH7 whole entry): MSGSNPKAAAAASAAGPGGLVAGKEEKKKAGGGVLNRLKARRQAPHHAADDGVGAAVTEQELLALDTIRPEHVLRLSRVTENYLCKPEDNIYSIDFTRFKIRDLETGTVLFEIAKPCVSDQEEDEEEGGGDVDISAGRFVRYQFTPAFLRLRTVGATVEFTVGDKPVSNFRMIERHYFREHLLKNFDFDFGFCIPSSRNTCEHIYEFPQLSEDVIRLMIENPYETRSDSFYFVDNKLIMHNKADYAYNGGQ
LCK, sequence (P06239 whole entry): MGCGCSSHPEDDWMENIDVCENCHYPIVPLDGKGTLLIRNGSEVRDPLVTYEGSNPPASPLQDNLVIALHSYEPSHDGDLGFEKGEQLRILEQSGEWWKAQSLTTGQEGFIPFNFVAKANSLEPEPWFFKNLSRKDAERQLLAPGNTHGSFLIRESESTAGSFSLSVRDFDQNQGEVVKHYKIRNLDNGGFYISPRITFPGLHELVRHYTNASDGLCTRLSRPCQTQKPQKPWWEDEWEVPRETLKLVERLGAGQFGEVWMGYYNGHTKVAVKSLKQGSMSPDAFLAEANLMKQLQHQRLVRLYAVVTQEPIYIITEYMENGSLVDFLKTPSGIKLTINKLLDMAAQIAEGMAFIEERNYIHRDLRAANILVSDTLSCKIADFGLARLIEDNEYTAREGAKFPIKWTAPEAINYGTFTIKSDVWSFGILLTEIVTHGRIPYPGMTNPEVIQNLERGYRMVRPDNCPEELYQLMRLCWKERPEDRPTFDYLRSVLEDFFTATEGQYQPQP
BLK, sequence (P51451 whole entry): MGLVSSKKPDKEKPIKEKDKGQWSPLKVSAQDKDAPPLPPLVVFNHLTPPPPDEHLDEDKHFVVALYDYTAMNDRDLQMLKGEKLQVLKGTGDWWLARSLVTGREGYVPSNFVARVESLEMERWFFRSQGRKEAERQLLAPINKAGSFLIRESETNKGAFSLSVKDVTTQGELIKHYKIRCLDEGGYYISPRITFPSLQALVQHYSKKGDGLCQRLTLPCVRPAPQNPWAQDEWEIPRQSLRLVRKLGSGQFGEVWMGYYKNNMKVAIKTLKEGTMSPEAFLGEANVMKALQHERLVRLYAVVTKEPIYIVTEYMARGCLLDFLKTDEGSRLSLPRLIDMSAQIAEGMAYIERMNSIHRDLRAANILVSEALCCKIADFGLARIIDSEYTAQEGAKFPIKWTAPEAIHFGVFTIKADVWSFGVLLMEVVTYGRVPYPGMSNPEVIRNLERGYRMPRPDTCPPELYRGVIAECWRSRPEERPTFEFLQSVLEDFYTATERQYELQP
TESK2, sequence (Q96S53 whole entry): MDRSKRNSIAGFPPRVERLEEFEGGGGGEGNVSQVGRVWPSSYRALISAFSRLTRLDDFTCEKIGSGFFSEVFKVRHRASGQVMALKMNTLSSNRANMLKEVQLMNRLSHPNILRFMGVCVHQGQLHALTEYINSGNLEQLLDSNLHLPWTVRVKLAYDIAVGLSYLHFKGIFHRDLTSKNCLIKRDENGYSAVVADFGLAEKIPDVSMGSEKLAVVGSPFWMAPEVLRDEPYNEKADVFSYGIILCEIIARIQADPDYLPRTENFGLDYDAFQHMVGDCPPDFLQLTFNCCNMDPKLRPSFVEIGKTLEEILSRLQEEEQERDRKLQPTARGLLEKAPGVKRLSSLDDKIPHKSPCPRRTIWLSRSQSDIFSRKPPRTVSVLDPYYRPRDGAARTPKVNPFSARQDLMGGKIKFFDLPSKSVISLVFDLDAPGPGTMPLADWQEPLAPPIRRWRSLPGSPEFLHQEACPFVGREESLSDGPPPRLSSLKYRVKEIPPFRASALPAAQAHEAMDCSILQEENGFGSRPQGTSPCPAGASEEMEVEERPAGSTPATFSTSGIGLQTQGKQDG

SMILES: Cc1ccc(C(=O)Nc2ccc(CN3CCN(CCCN)CC3)c(C(F)(F)F)c2)cc1C#Cc1cnc2cccnn12 [c-ponatinib]
- Av. SC comp. ([1]; + free ponatinib): 0
- Total SC comp. ([1]; + free ponatinib): 0
- Av. SC ([1]; no competitor): 9.5
- Total SC ([1]; no competitor): 38
- Av. SC comp. ([2]; + free ponatinib): 4
- Total SC comp. ([2]; + free ponatinib): 16
- Av. SC ([2]; no competitor): 24.25
- Total SC ([2]; no competitor): 97
- Av. SC comp. ([3]; + free ponatinib): 0.75
- Total SC comp. ([3]; + free ponatinib): 3
- Av. SC ([3]; no competitor): 98.5
- Total SC ([3]; no competitor): 394
- Av. SC comp. ([4]; + free ponatinib): 10.75
- Total SC comp. ([4]; + free ponatinib): 43
- Av. SC ([4]; no competitor): 54.5
- Total SC ([4]; no competitor): 218
- Av. SC comp. ([5]; + free ponatinib): 3.75
- Total SC comp. ([5]; + free ponatinib): 15
- Av. SC ([5]; no competitor): 10.75
- Total SC ([5]; no competitor): 43
- Av. SC comp. ([6]; + free ponatinib): 0
- Total SC comp. ([6]; + free ponatinib): 0
- Av. SC ([6]; no competitor): 23.5
- Total SC ([6]; no competitor): 94
- Av. SC comp. ([7]; + free ponatinib): 0
- Total SC comp. ([7]; + free ponatinib): 0
- Av. SC ([7]; no competitor): 5
- Total SC ([7]; no competitor): 20
- Av. SC comp. ([8]; + free ponatinib): 0
- Total SC comp. ([8]; + free ponatinib): 0
- Av. SC ([8]; no competitor): 26.75
- Total SC ([8]; no competitor): 107
- Av. SC comp. ([9]; + free ponatinib): 0
- Total SC comp. ([9]; + free ponatinib): 0
- Av. SC ([9]; no competitor): 6
- Total SC ([9]; no competitor): 24
- Av. SC comp. ([10]; + free ponatinib): 1.25
- Total SC comp. ([10]; + free ponatinib): 5
- Av. SC ([10]; no competitor): 9
- Total SC ([10]; no competitor): 36
